The text below walks through data of patent US10167284B2, “Spirocyclic compounds as agonists of the muscarinic M1 receptor and/or M4 receptor” (HEPTARES THERAPEUTICS LIMITED, priority 2015, dated 2019).

Each structure is given as a SMILES string. Bounds are passed on as bounds.

Assay [1] deals with T1, human muscarinic M4 receptor (Homo sapiens, UniProt P08173).
T1 construct: expressed in transfected cells
T1 sequence (P08173 1-479): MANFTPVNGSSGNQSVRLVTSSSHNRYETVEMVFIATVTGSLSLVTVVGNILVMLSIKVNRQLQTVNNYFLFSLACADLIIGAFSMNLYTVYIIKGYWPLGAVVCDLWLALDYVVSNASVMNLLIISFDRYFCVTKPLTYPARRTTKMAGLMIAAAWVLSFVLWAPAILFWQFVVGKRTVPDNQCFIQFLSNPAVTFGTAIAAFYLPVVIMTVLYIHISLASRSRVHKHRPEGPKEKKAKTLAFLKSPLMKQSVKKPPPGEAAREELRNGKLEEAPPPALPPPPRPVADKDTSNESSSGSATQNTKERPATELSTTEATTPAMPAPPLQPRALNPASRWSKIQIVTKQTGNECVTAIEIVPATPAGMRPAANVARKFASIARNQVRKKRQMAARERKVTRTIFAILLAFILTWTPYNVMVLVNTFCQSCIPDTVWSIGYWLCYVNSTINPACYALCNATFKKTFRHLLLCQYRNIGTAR
Nature of the assay: Alphascreen Surefire phospho-ERK1/2 functional assay, M4. The class given is cell-based. Conditions: for EC50 / M4 % Emax cf. ACh: CHO cells stably expressing human M4; for EC50: phospho-ERK1/2, read-out: pEC50 M4 (converted); for Emax: CHO, read-out: M4 % Emax cf. ACh, CHO cells stably expressing human M4; for Emax / M4 % Emax cf. ACh: Emax relative to ACh. On the technique in general: In Alpha technology, singlet oxygen from a donor bead excites a nearby acceptor bead.

In assay [2] the target is T2, human muscarinic M1 receptor (Homo sapiens, UniProt P11229).
T2 construct: expressed in transfected cells
T2 sequence (P11229 1-460): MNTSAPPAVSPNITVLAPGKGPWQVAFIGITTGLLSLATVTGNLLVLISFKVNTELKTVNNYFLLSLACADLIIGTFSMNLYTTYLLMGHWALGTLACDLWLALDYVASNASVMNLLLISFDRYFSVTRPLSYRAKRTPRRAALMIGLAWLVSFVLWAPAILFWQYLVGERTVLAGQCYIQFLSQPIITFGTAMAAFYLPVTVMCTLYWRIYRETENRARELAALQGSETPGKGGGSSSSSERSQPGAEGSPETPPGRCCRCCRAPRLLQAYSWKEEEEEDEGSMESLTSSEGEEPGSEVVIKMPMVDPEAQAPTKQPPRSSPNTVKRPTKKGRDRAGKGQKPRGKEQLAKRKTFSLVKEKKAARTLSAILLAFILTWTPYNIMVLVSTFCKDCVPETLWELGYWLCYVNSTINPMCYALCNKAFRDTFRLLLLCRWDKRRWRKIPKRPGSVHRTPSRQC
Nature of the assay: Alphascreen Surefire phospho-ERK1/2 functional assay, M1. It is filed as cell-based. Conditions: for EC50 / M1 % Emax cf. ACh: CHO cells stably expressing human M1; for EC50: phospho-ERK1/2, read-out: pEC50 M1 (converted); for Emax: CHO, read-out: M1 % Emax cf. ACh, CHO cells stably expressing human M1; for Emax / M1 % Emax cf. ACh: Emax relative to ACh.

What is called Emax is the size of the effect at its maximum, as opposed to the concentration needed. Regarding `CCOC(=O)N1CCC2(CC(N3CCC4(CC3)CN(CC(C)C)C(=O)O4)C2)C1` (single isomer, unassigned) [4-9 Isomer 2], in assay [1], the EC50 was 631 nM and the Emax amounted to 76%. Besides, in assay [2], the EC50 is 1000 nM and the Emax turned out to be 104%.
Consider `CCOC(=O)N1CCC2(CC(N3CCC4(CC3)OC(=O)N(CC3CC3)C4CC)C2)C1` (single isomer, unassigned) [4-25 Isomer 2 (racemic)], for which, in assay [1], the EC50 is 126 nM and the maximal effect (Emax) amounted to 69%. Moreover, in assay [2], the EC50 was 794 nM and the Emax is 73%.
Take `CCC1NC(=O)CC12CCN(C1CC3(CCN(C(=O)OC)C3)C1)CC2` (single isomer, unassigned) [3-4 Isomer 2]: in assay [1], the “M4 % Emax cf. ACh” value is given as “(36) %” and the EC50 is 200 nM. Moreover, in assay [2], the “M1 % Emax cf. ACh” value is “(71) %” and the EC50 is 2000 nM.
As for `CCOC(=O)N1CCC2(CC(N3CCC4(CC3)CC(=O)NN4C(C)C)C2)C1` (single isomer, unassigned) [6-5 Isomer 2], in assay [1], the EC50 was > 20000 nM and the maximal effect (Emax) is 20%. Also, in assay [2], the EC50 is 2000 nM and the Emax is 56%.
In the case of `CCOC(=O)N1CCC2(CC(N3CCC4(CC3)OC(=O)N(CC)C4CC)C2)C1` (single isomer, unassigned) [4-22 Isomer 2], in assay [1], the “M4 % Emax cf. ACh” value is recorded as “(2) %” and the EC50 is > 20000 nM. In assay [2], the “M1 % Emax cf. ACh” value was “(1) %” and the EC50 is > 20000 nM.
Take `CCOC(=O)N1CCC2(CC(N3CCC4(CC3)OC(=O)NC43CC(F)(F)C3)C2)C1` (single isomer, unassigned) [4-30 Isomer 1]: in assay [1], the EC50 was 158 nM and the Emax was determined as 63%. Besides, in assay [2], the EC50 was 1260 nM and the Emax came to 49%.
Consider `CCOC(=O)N1CCC2(CC(N3CCC4(CC3)CN(C(C)C)C(=O)O4)C2)C1` (single isomer, unassigned) [4-8 Isomer 2], for which the EC50 is 398 nM in assay [1] and 1260 nM in assay [2]. Further, the Emax turned out to be 58% in assay [1] and 63% in assay [2].
For `CCOC(=O)N1CCC2(CC(N3CCC4(CC3)OC(=O)NC4Cc3ccccn3)C2)C1` (single isomer, unassigned) [4-19 Isomer 2 (racemic)], in that order: 794 nM, 200 nM, 72% and 98%.
Consider `CCOC(=O)N1CC2(CC(N3CCC4(CC3)OC(=O)N3CCCC34)C2)C1` (centres unmarked) [Example 2-5, ethyl 6-(3′-oxotetrahydro-1H-spiro[piperidine-4,1′-pyrrolo[1,2-c][1,3]oxazol]-1-yl)-2-azaspiro[3.3]heptane-2-carboxylate], for which, in assay [1], the EC50 was 126 nM and the Emax turned out to be 34%. In assay [2], the EC50 is 1000 nM and the Emax was determined as 28%.
On to `CCOC(=O)N1CCC2(CC(N3CCC4(CC3)OC(=O)N(CC#N)C4(C)C)C2)C1` (single isomer, unassigned) [4-42 Isomer 2], for which the EC50 in assay [1] was 200 nM; in assay [2] it was > 20000 nM. The values for the Emax in assay [1] and in assay [2] were 52% and 16%, respectively.
Regarding `CCCN1C(=O)OC2(CCN(C3CC4(CCN(C(=O)OCC)C4)C3)CC2)C1CC` (single isomer, unassigned) [4-23 Isomer 1], in assay [1], the “M4 % Emax cf. ACh” value is reported as “(33) %” and the EC50 was 501 nM. For the same compound, in assay [2], the “M1 % Emax cf. ACh” value is given as “(9) %” and the EC50 was > 20000 nM.
As for `CCCN1N(C)C(=O)CC12CCN(C1CC3(CCN(C(=O)OCC)C3)C1)CC2` (single isomer, unassigned) [6-10 Isomer 2], in assay [1], the EC50 was 39.8 nM and the Emax was 109%. For the same compound, in assay [2], the EC50 is 1260 nM and the Emax stood at 90%.
As to `CCOC(=O)N1CC2(CC(N3CCC4(CC3)OC(=O)NC4(C)C)C2)C1` [Example 2-3, ethyl 6-(4,4-dimethyl-2-oxo-1-oxa-3,8-diazaspiro[4.5]decan-8-yl)-2-azaspiro[3.3]heptane-2-carboxylate], in assay [1], the EC50 was 1000 nM and the Emax stood at 73%. In addition, in assay [2], the EC50 is 3160 nM and the Emax came out at 92%.
For `CCC1NC(=O)CC12CCN(C1CC3(CCN(C(=O)OC)C3)C1)CC2` (single isomer, unassigned) [3-4 Isomer 1], in assay [1], the “M4 % Emax cf. ACh” value is “(30) %” and the EC50 was 316 nM. Moreover, in assay [2], the “M1 % Emax cf. ACh” value was “(35) %” and the EC50 was 3160 nM.
For `CCOC(=O)N1CCC2(CC(N3CCC4(CC3)CNC(=O)O4)C2)C1` (single isomer, unassigned) [4-3 Isomer 1], in that order: “(37) %”, 316 nM, “(91) %” and 251 nM.
`COC(=O)N1CCC2(CC(N3CCC4(CC3)OC(=O)N3CCCC34)C2)C1` (single isomer, unassigned) [4-45 Isomer 2]: the EC50 in assay [1] is 316 nM; in assay [2] it was 1000 nM. In addition, the Emax in assay [1] was found to be 36%; in assay [2], 59%.
Turning to `CCC1N(CC)C(=O)OC12CCN(C1CC3(CCN(C(=O)OC)C3)C1)CC2` (single isomer, unassigned) [4-21 Isomer 2 (racemic)], in assay [1], the EC50 is 200 nM and the Emax stood at 36%. For the same compound, in assay [2], the EC50 was 794 nM and the Emax came to 77%.
With `CCOC(=O)N1CCC2(CC(N3CCC4(CC3)CC(=O)NN4Cc3ccccc3)C2)C1` (single isomer, unassigned) [6-6 Isomer 1], in assay [1], the “M4 % Emax cf. ACh” value is recorded as “(10) %” and the EC50 is > 20000 nM. In assay [2], the “M1 % Emax cf. ACh” value is on record as “(36) %” and the EC50 was 501 nM.
As for `CCOC(=O)N1CC2(CC(N3CCC4(CC3)CNC(=O)C4)C2)C1` [Example 1-1, ethyl 6-(3-oxo-2,8-diazaspiro[4.5]dec-8-yl)-2-azaspiro[3.3]heptane-2-carboxylate], the values for the EC50 in assay [1] and in assay [2] were > 20000 nM and 316 nM, respectively. Further, the Emax in assay [1] turned out to be 66%; in assay [2], 107%.
On to `CC(C)OC(=O)N1CCC2(CC(N3CCC4(CC3)CNC(=O)O4)C2)C1` (single isomer, unassigned) [4-4 Isomer 2], for which, in assay [1], the EC50 is 398 nM and the Emax is 24%. In assay [2], the EC50 is 631 nM and the Emax was 52%.
As to `CCOC(=O)N1CCC2(CC(N3CCC4(CC3)OC(=O)N(CC)C4(C)C)C2)C1` (single isomer, unassigned) [4-35 Isomer 2], in assay [1], the EC50 is 31.6 nM and the maximal response (Emax) was 108%. In addition, in assay [2], the EC50 was 1000 nM and the Emax was determined as 57%.
Regarding `CCCN1C(=O)OC2(CCN(C3CC4(CCN(C(=O)OCC)C4)C3)CC2)C1CC` (single isomer, unassigned) [4-23 Isomer 2], in assay [1], the “M4 % Emax cf. ACh” value is reported as “(3) %” and the EC50 is > 20000 nM. Also, in assay [2], the “M1 % Emax cf. ACh” value was “(5) %” and the EC50 is > 20000 nM.
For the compound `CCOC(=O)N1CCC2(CC(N3CCC4(CC3)OC(=O)NC4(C)C)C2)C1` (single isomer, unassigned) [4-27 Isomer 1], in assay [1], the “M4 % Emax cf. ACh” value is reported as “(59) %” and the EC50 is 251 nM. Besides, in assay [2], the “M1 % Emax cf. ACh” value is on record as “(65) %” and the EC50 was 10000 nM.
As for `CCOC(=O)N1CCC2(CC(N3CCC4(CC3)OC(=O)NC4C3CCC3)C2)C1` (single isomer, unassigned) [4-15 Isomer 1 (racemic)], in assay [1], the EC50 is 158 nM and the Emax came out at 87%. In assay [2], the EC50 was 501 nM and the Emax is 85%.
For `CCOC(=O)N1CCC2(CC(N3CCC4(CC3)OC(=O)N(C)C4CC)C2)C1` (single isomer, unassigned) [4-20 Isomer 1], in assay [1], the “M4 % Emax cf. ACh” value is reported as “(42) %” and the EC50 is 501 nM. In addition, in assay [2], the “M1 % Emax cf. ACh” value is recorded as “(57) %” and the EC50 is 2000 nM.
For the compound `CCOC(=O)N1CCC2(CC(N3CCC4(CC3)OC(=O)N(C)C4CC)C2)C1` (single isomer, unassigned) [4-20 Isomer 2], in assay [1], the “M4 % Emax cf. ACh” value is on record as “(9) %” and the EC50 was > 20000 nM. Further, in assay [2], the “M1 % Emax cf. ACh” value is recorded as “(16) %” and the EC50 is > 20000 nM.
